Columns and labels:
[1] = Solubilizing Daunorubicine; assay type: physicochemical; details: 2 mg/ml in GENC or RO water
Procedure: Required concentration: 2 mg/ml

[2] = Solvent capability: Taxol (Example 28); assay type: physicochemical; details: 0.5 mM in DMSO or in the composition with 17% EtOH
Procedure: 0.5 mM Taxol solution can be prepared (0.0017 gr in 4 ml) in either DMSO or the enriched nanostructure composition of the present embodiments with 17% EtOH. Absorbance can be detected with a spectrophotometer.

With `COc1cccc2c1C(=O)c1c(O)c3c(c(O)c1C2=O)C[C@@](O)(C(C)=O)C[C@@H]3O[C@H]1C[C@H](N)[C@H](O)[C@H](C)O1` [Daunorubicine] the dissolution [1] was “dissolved easily both in the enriched nanostructure composition of the present embodiments and in RO water”.

With `CC(=O)O[C@H]1C(=O)[C@@]2(C)[C@H]([C@H](OC(=O)c3ccccc3)[C@]3(O)C[C@H](OC(=O)[C@H](O)[C@@H](NC(=O)c4ccccc4)c4ccccc4)C(C)=C1C3(C)C)[C@]1(OC(C)=O)CO[C@@H]1C[C@@H]2O` [Taxol, Paclitaxel] the dissolution [2] was “dissolved both in DMSO and the enriched nanostructure composition”.

Reference: patent publication US20110178182A1, “ENRICHED NANOSTRUCTURE COMPOSITION” (DO-COOP TECHNOLOGIES LTD., priority 2007, published 2011)
